# Source: patent EP1219638A2, “G-protein coupled receptors having homology to the P2Y purinoreceptor 1 (P2Y1)” (Pfizer Limited, priority 2000, dated 2002)
# Test system: PFI-019, SEQ ID NO: 2
# Assay: FLIPR functional cell-based assay for agonist activation (Fluo3 fluorescence), transiently transfected 293 cells expressing mouse Gα15
# Design: species or system human
# Settings: PFI-019-transfected 293 cells (HEK 293 expressing mouse Gα15); fluorescence intensity versus time; concentration not given; Figures 3-6
# Protocol: Fluorescence Imaging Plate Reader (FLIPR®) technology was employed as a means to detect activation of PFI-019 by agonists in a cell-based assay.
# 5 x 10^6 Human Embryonic Kidney (HEK) 293 cells expressing the mouse Gα15 gene (from here on called '293 cells'), were transiently transfected with 7.5 µg of PFI-019 (contained within the pcDNA4HIS-max-TOPO (Invitrogen) plasmid) vector, or vector alone, using Lipofectamine Plus® reagent (Gibco BRL) as per the manufacturer's protocol. The plasmid pcDNA4HIS-max-TOPO was used as it contains elements that up-regulate the level of gene transcription over standard pcDNA3.1 vectors. 24 hrs post-transfection, the cells were detached from the flask using Trypsin/EDTA solution (LTI) and seeded into a black sided, Poly-D-lysine-treated, 96-well plate (Becton Dickinson) at 5 x 10^4 cells/well density. The plates were left overnight to allow the cells to adhere to the bottom of the wells. The medium was removed from the cells and replaced with 100 µl warm (37°C) dye loading solution (50 µg Fluo3 (Molecular Probes) in 20 µl DMSO + 20% pluronic acid in DMSO, added to 11 ml Dulbecco's Modified Eagles Medium containing 1x Probenecid (100x Probenecid - 0.71 g Probenecid was dissolved in 5 ml 1M NaOH and 5 ml Dulbeccos' Phosphate Buffered Saline (PBS), per plate; Probenecid (Molecular Probes) inhibits activity of the anion transport protein, thus improving dye loading). The plates were then incubated for 1 hr at 37°C. Plates were subsequently washed with 250 µl of wash buffer per well (5 ml 100x Probenecid stock + 495 ml PBS, pH 7.4) 4 times. The plates were returned to the 37°C/5%CO2 incubator for 30 mins prior to processing within the FLIPR® instrument. The FLIPR® processing involved reading the fluorescence for all samples for 2 minutes; during this time the fluorescence baseline was determined for the first 10 seconds. The desired amount of compound was then automatically transferred to the wells, and the fluorescence was continuously monitored for the remainder of the time. All compounds were diluted in wash buffer
# Using methodology as described in detail above, purinoceptor agonist compounds were identified as being able to functionally activate PFI-019.
# Figures 3, 4, 5 and 6 show the response of PFI-019-transfected 293 cells to 2-chloroadenosine triphosphate tetrasodium (2-chloro-ATP; Fig. 3), 2-Methylthioadenosine triphosphate tetrasodium (2-methyl-thio-ATP; Fig. 4;); 2-Methylthioadenosine diphosphate trisodium (2-methyl-thio-ADP, Fig. 5) and Uridine triphosphate (Fig. 6). […] All compounds were purchased from Sigma.
row,Compound,stimulation of PFI-019
1,"CSc1nc(N)c2ncn([C@@H]3O[C@H](COP(=O)(O)OP(=O)(O)OP(=O)(O)O)[C@@H](O)[C@H]3O)c2n1 [2-methyl-thio-ATP, 2-Methylthioadenosine triphosphate tetrasodium]",stimulation
2,"O=c1ccn([C@@H]2O[C@H](COP(=O)(O)OP(=O)(O)OP(=O)(O)O)[C@@H](O)[C@H]2O)c(=O)[nH]1 [UTP, Uridine triphosphate]",stimulation
3,"CSc1nc(N)c2ncn([C@@H]3O[C@H](COP(=O)(O)OP(=O)(O)O)[C@@H](O)[C@H]3O)c2n1 [2-methyl-thio-ADP, 2-Methylthioadenosine diphosphate trisodium]",stimulation
4,"Nc1nc(Cl)nc2c1ncn2[C@@H]1O[C@H](COP(=O)([O-])OP(=O)([O-])OP(=O)([O-])[O-])[C@@H](O)[C@H]1O.[Na+].[Na+].[Na+].[Na+] [2-chloro-ATP, 2-chloroadenosine triphosphate tetrasodium]",stimulation
